Legend:
LNCaP (PSMA+) cells = test: Cytotoxicity assay of CAR T cells in vitro (LDH release), LNCaP; type: cell-based; settings: LNCaP (PSMA+) model, E:T 10:1, 100 nM conjugate; FIG. 3B
Procedure: (§1) In order to test cytotoxicity of CAR T cells with desired FITC-ligands, a standard lactate dehydrogenase (LDH) release assay was performed using a Pierce™ LDH cytotoxicity assay kit from ThermoFisher Scientific. To prepare samples for the LDH assay, cancer cells were seeded at a density of 10^4 cells/100 μL of media in each well of a 96 well plate and grown overnight. CAR T cells were prepared the next day at various numbers to have different effector (CAR T cell):target cell (cancer cell) ratios (e.g. E:T=20:1, 10:1, 5:1 and 1:1). FITC-ligands at various concentrations were introduced into each well and co-cultured for 6-24 hours. After co-incubation, the plate containing CAR T cells and cancer cells was centrifuged at 350×g at room temperature for 10 min to remove cell debris or remaining cells. 50 μL of the supernatants of each sample were then transferred into a new 96 well plate. 50 μL of the prepared LDH reaction mixture was added to the transferred 50 μL of each sample and incubated at room temperature for 30 min. 50 μL of stop solution was added and the absorbance of each sample was measured at 490 nm and 680 nm. The percent of cytotoxicity was calculated for each sample by using the equation below: % Cytotoxicity=(Experimental value−effector cells spontaneous−target cells spontaneous)/(Target cell maximum control−target cell spontaneous control)×100

KB (FR+) cells = test: Cytotoxicity assay of CAR T cells in vitro (LDH release), KB; type: cell-based; settings: KB (FR+) model, 100 nM conjugate; FIG. 3D
Procedure: as §1

MDA-MB-231(FR+) = test: Two tumors on separate flanks of the same mouse, MDA-MB-231 tumor; type: in vivo, mice
Source text: (§2) In order to study whether same anti-FITC CAR T cell can eradicate mixture of heterogeneous cancer cells with cocktail of FITC-ligands, immunodeficient NSG mice (Jackson laboratory) were utilized for the in vivo study. Two different cancer cell lines (e.g. MDA-MB-231(FR+) and HEK(NK1R+)) were implanted into separate flanks on the same mouse. Then, anti-FITC CAR T cell (10^7 cells) was introduced by intravenous injection when tumor volumes reached about 50-100 mm^3. In addition, either a mixture of FITC-ligands (i.e. FITC-PEG12-Folate (500 nmole/kg) and FITC-PEG11-NK1R (500 nmole/kg)), single FITC-PEG11-NK-1R (500 nmole/kg) or PBS was introduced every other day by intravenous injection. The anti-tumor efficacy of CAR T cell with FITC-ligands was analyzed by measuring tumor volume at every other day.

HEK(NK1R+) = test: Two tumors on separate flanks of the same mouse, HEK tumor; type: in vivo, mice
Source text: as §2

HEK293 (NK1R+) cells [1] = test: Anti-tumor efficacy of CAR T cells in vivo, HEK293 (NK1R+) xenograft; parameters: species or system mice
Procedure: (§3) Immunodeficient NSG mice (Jackson Laboratory) were used to identify the efficacy of CAR T cell anti-tumor activity in vivo. Each tumor-specific antigen expressing cancer cell line was subcutaneously injected into the shoulder of NSG mice to establish solid tumor xenografts. When tumor volume of around 50-100 mm^3 was reached, CAR T cells were introduced into mice bearing tumors and desired FITC-ligands were also introduced (i.v.) every other day. Control mice were administered PBS instead of FITC-ligands. Tumor volume and cytokine levels in the blood (IL2, IL6, IL10, IFNγ, and TNFα) were measured. General toxicity of the therapy was monitored by measuring weight loss. At the end of each treatment, mouse blood was collected to test for anemia, number of white blood cells and CAR T cell proliferation. Mouse organs were also evaluated.

HEK293 (NK1R+) cells [2] = test: Cytotoxicity assay of CAR T cells in vitro (LDH release), HEK293; type: cell-based; settings: HEK293 (NK1R+) model, E:T 10:1, 100 nM conjugate; FIG. 3C
Procedure: as §1

MDA-MB-231 (FR+) cells = test: Anti-tumor efficacy of CAR T cells in vivo, MDA-MB-231 (FR+) xenograft; parameters: species or system mice; settings: during treatment, FIG. 7B
Procedure: as §3

[3] = anti-FITC CAR T cell (10^7 cells) + both FITC-PEG11-NK1R and FITC-PEG12-Folate, 500 nmole/kg each, i.v. every other day, FIG. 19C
[4] = anti-FITC CAR T cell (10^7 cells) + only FITC-PEG11-NK1R 500 nmole/kg i.v. every other day, FIG. 19B

SMILES | cytotoxicity of CAR T cells (activation) (LNCaP (PSMA+) cells) | CAR T cell cytotoxicity to tumor cells as a function of E:T ratio (KB (FR+) cells) | MDA-MB-231 tumor volume (MDA-MB-231(FR+); [3]) | MDA-MB-231 tumor volume (MDA-MB-231(FR+); [4]) | HEK (NK1R) tumor volume (HEK(NK1R+); [3]) | HEK (NK1R) tumor volume (HEK(NK1R+); [4]) | blood indices (cytokine storm) (HEK293 (NK1R+) cells [1]; HEK-NK1R model, 500 nmoles/kg, FIG. 9) | tumor size (HEK293 (NK1R+) cells [1]; NSG mice, CAR T cells + conjugate 500 nmol/kg i.v. every other day, FIG. 5A) | body weight (HEK293 (NK1R+) cells [1]; NSG mice, CAR T cells + conjugate, FIG. 5B) | harvested organs, indications of cytokine release syndrome (HEK293 (NK1R+) cells [1]; after two weeks of therapy, versus control group, FIGS. 6A-B) | percentage of CAR T cells in human T cells (HEK293 (NK1R+) cells [1]; post CAR T cell injection along with conjugate, FIG. 5C) | cytotoxicity of CAR T cells (activation) (HEK293 (NK1R+) cells [2]) | body weight (MDA-MB-231 (FR+) cells)
O=C(O)CC[C@H](NC(=O)N[C@@H](CCC(=O)NCCCCCCCC(=O)N[C@@H](Cc1ccccc1)C(=O)N[C@@H](Cc1ccccc1)C(=O)NCCNC(=S)Nc1ccc(-c2c3ccc(=O)cc-3oc3cc(O)ccc23)c(C(=O)O)c1)C(=O)O)C(=O)O [FITC-DUPA] | greater activation than using FITC-Folate or in the absence of a conjugate | a function of the E:T ratio |  |  |  |  |  |  |  |  |  |  | 
O=C(CN1CCC[C@H](OCc2cc(C(F)(F)F)cc(C(F)(F)F)c2)[C@@H]1c1ccccc1)NCCOCCOCCOCCOCCOCCOCCOCCOCCOCCOCCOCCNC(=S)Nc1ccc(-c2c3ccc(=O)cc-3oc3cc(O)ccc23)c(C(=O)O)c1 [FITC-PEG11-NK1] |  |  | eliminated | continued growing | eliminated | eradicated | a cytokine storm had not occurred | decreased | unchanged relative to the control mouse | appeared normal in size with no indications of cytokine release syndrome | increased | greater than activation using FITC-Folate or in the absence of a conjugate | unchanged during treatment

— patent US12144850B2, “Methods and compositions for car T cell therapy” (PURDUE RESEARCH FOUNDATION, priority 2016, dated 2024)
